Tests used:
[1] = test system: HCT-116 cells; assay: In vitro anti-proliferative activity, MTT test, HCT-116; format: cell-based; settings: Homo sapiens, read-out: In vitro cytotoxicity IC50 HCT-116
Experimental: (§1) The in vitro anti-proliferative effects of the four synthesised members were assessed against two cancer cell lines namely, hepatocellular carcinoma (HepG-2) and colorectal carcinoma (HCT-116) cell lines, by the standard MTT test[29]. HepG-2 and HCT-116 cell lines were precisely selected relying on their VEGF overexpression. […] The cytotoxicity results were established in Table 7.
(§2) The anti-proliferative activity of the four members was estimated by the MTT protocol as described[38–41] (Supplementary data).

[2] = target: T1, VEGFR-2 (Homo sapiens, UniProt P35968); assay: Assessment of VEGFR-2 inhibition in HCT-116 cells; format: cell-based; settings: HCT-116 cells treated at concentrations equal to the cytotoxic ones; read-out: VEGFR-2 protein concentration (called VEGFR-2 inhibitory IC50 in text)
T1 construct: in vitro investigation against VEGFR-2 in HCT-116 cells; endogenous in cells; host or cells: HCT-116
T1 sequence (P35968 20-1356): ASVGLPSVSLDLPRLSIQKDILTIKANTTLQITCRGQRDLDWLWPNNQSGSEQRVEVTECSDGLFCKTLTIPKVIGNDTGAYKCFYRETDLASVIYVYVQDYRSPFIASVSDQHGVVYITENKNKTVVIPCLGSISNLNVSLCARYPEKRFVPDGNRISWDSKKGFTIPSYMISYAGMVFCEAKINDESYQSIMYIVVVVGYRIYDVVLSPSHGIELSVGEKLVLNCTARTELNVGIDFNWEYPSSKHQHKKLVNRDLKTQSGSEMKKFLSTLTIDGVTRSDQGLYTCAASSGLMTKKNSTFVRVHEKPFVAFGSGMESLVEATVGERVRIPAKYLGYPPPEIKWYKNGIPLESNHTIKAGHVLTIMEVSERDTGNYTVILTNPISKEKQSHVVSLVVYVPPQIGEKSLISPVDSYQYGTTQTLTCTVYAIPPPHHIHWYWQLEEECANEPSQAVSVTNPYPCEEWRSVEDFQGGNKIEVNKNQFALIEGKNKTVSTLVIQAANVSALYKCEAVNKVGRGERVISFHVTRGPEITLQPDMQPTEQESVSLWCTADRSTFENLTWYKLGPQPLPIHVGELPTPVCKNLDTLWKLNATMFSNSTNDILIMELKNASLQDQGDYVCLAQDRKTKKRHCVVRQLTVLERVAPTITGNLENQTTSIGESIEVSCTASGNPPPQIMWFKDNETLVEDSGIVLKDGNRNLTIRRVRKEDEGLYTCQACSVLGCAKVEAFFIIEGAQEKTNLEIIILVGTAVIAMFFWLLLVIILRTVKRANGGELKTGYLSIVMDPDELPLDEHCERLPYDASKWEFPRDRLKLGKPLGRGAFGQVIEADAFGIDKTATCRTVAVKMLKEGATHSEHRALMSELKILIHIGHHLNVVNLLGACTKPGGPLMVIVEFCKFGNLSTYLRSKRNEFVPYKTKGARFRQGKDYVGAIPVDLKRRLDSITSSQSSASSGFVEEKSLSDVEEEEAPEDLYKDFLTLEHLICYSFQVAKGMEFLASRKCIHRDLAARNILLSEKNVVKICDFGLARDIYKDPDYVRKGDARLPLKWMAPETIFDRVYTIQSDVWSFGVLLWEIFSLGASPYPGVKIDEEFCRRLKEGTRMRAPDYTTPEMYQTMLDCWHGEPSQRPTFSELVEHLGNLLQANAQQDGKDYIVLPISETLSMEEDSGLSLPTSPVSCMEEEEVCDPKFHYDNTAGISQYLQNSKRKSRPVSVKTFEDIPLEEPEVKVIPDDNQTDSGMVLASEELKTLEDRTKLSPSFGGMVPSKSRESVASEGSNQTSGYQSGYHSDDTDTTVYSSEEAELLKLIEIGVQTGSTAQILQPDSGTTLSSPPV
Description: The designed congeners were, also, subject to an in vitro investigation against VEGFR-2 in HCT-116 cells.
The four selected members were further assessed to measure their inhibitory activities against the VEGFR-2 enzyme following the protocol shown in Supplementary data.

[3] = test system: HepG-2 cells; assay: In vitro anti-proliferative activity, MTT test, HepG-2; format: cell-based; settings: for IC50: Homo sapiens, HepG2, MTT, HepG-2, read-out: In vitro cytotoxicity IC50 HepG-2
Experimental: as §1, §2

[4] = test system: IL6; assay: In vitro immunomodulatory assay, IL6 (ELISA) in HCT-116 cells; format: cell-based; settings: C-6 (21.8 µM), D-1 (3.08 µM), 48 h
Experimental: (§3) Compounds C-6 and D-1 were further assayed for their immunomodulatory effect on HCT-116 cells. Two immunity-related markers were measured namely, human tumour necrosis factor alpha (TNF-α), and interleukin 6 (IL6). Dexamethasone, a potent inhibitor of both TNF-α and IL6, was used as a positive control.
(§4) The level of TNF-α and IL6 in cell culture supernatants was assessed by the ELISA technique according to the reported procedure[50]^,[51].

[5] = test system: TNF-α; assay: In vitro immunomodulatory assay, TNF-α (ELISA) in HCT-116 cells; format: cell-based, human; settings: C-6 (21.8 µM), D-1 (3.08 µM), 48 h
Experimental: as §3, §4

[6] = test system: HCT-116 cells; assay: Cell cycle analysis by flow cytometry in HCT-116 cells; format: cell-based; settings: HCT-116, 3.08 µM for 48 h
Description: Aiming to obtain a further understanding of the mechanism that triggers the anticancer activity of D-1, the cell cycle progression was investigated using flow cytometry in HCT-116 cells.
Based on the protocol referred to by Léonce et al., the flow cytometric analysis for congener D-1 was done[19]^,[44–46] (Supplementary data).

[7] = test system: HCT-116 cells; assay: Annexin-V/propidium iodide apoptosis assay in HCT-116 cells; format: cell-based; settings: HCT-116, 3.08 µM for 48 h
Experimental: Since the induction of apoptosis is a key determinant in the drug’s therapeutic outcome, the ability of the best cytotoxic member D-1 to induce apoptosis in colorectal carcinoma (HCT-116) cells was evaluated using Annexin-V/propidium iodide (PI) staining assay. […] The percentage of early and late apoptotic populations elevated from 0.7% and 1.73% in the untreated cells to 4.36% and 17.62% in the D-1 treated cells (Table 10 and Figures 11 and 12).
Annexin‐V‐FITC assay for compound D-1 on HCT-116 cells according to the reported procedure[15]^,[47–49] (Supplementary data).

[8] = test system: Bcl-2; assay: Bcl-2 level in treated HCT-116 cells; format: cell-based
Experimental: (§5) Upregulation of the proapoptotic genes in addition to the downregulation of the anti-apoptotic ones, thus, confirmed the apoptotic behaviour of the designed compound.
(§6) Estimation of caspase-3 levels after treatment of cells with compound D-1 was performed according to the protocol described by M. Andersson et al.[42]. While Bax and Bcl-2 cellular levels were evaluated for D-1 in HCT-116 cells according to the reported protocol[43] (Supplementary data).

[9] = test system: caspase-8; assay: Caspase-8 concentration in treated HCT-116 cells; format: cell-based
[10] = test system: BAX; assay: BAX level in treated HCT-116 cells; format: cell-based
Experimental: as §5, §6

CC(=NNC(=O)c1cccnc1)c1ccc(NC(=O)c2cccnc2)cc1 [Compound A-1, N-(4–(1-(2-Nicotinoylhydrazineylidene)ethyl)phenyl)nicotinamide]
IC50 [1]: 34.9 ± 0.084 µM
IC50 [2]: 0.0221 µM
IC50 [3]: 18.07 ± 0.052 µM

CNC(=O)c1cc(Oc2ccc(NC(=O)Nc3ccc(Cl)c(C(F)(F)F)c3)cc2)ccn1 [Sorafenib, sorafenib, reference compound]
IC50 [1]: 7.28 ± 0.58 µM
IC50 [3]: 5.28 ± 0.21 µM

CC(=NNC(=O)c1ccccc1)c1ccc(NC(=O)c2cccnc2)cc1 [Compound B-1, N-(4–(1-(2-Benzoylhydrazineylidene)ethyl)phenyl)nicotinamide]
IC50 [1]: 19.6 ± 0.052 µM
IC50 [2]: 0.08 µM
IC50 [3]: 17.4 ± 0.05 µM

C[C@@H]1C[C@H]2[C@@H]3CCC4=CC(=O)C=C[C@]4(C)[C@@]3(F)[C@@H](O)C[C@]2(C)[C@@]1(O)C(=O)CO [Dexamethasone, reference compound]
% Inhibition of IL6 [4]: 93.15%
% Inhibition of TNF-α [5]: 82.47%

CC(=NNc1ccccc1)c1ccc(NC(=O)c2cccnc2)cc1 [Compound D-1, N-(4–(1-(2-Phenylhydrazineylidene)ethyl)phenyl)nicotinamide]
%G0-G1 [6]: 41.26%
%G2-M [6]: 30.37%
%Pre-G1 [6]: 23.68%
%S [6]: 28.37%
% Inhibition of IL6 [4]: 85.64%
IC50 [1]: 3.08 ± 0.002 µM
Apoptosis Early ([7]; % given in Figure 11): 4.36%
Apoptosis Late ([7]; % given in Figure 11): 17.62%
Apoptosis Total ([7]; % given in Figure 11): 23.68%
Necrosis ([7]; % printed in Figure 11): 1.7%
IC50 [2]: 0.0231 µM
decrease of Bcl-2 level to ([8]; HCT-116 cells, versus control): 0.23 fold
Bcl-2 ([8]; treated HCT-116 cells): 1.274 pg/mL
increase of caspase-8 level ([9]; HCT-116 cells, versus control): 10.41 fold
Caspase-8 ([9]; treated HCT-116 cells): 523.61 pg/mL
increase of BAX expression level ([10]; HCT-116 cells, versus control): 9.52 fold
BAX ([10]; treated HCT-116 cells): 401.79 pg/mL
% Inhibition of TNF-α [5]: 91.19%
IC50 [3]: 4.09 ± 0.005 µM
activity against HepG-2, fold more than sorafenib ([3]; ratio of IC50 values versus sorafenib): about 1.2 fold

CC(=NO)c1ccc(NC(=O)c2cccnc2)cc1 [Compound C-6, N-(4–(1-(Hydroxyimino)ethyl)phenyl)nicotinamide]
% Inhibition of IL6 [4]: 75.21%
IC50 [1]: 21.8 ± 0.057 µM
IC50 [2]: 0.0157 µM
% Inhibition of TNF-α [5]: 86.48%
IC50 [3]: 15.9 ± 0.045 µM

From publication PMC9116259, “Discovery of new nicotinamides as apoptotic VEGFR-2 inhibitors: virtual screening, synthesis, anti-proliferative, immunomodulatory, ADMET, toxicity, and molecular dynamic simulation studies” (Journal of Enzyme Inhibition and Medicinal Chemistry, 2022)
